In general, MIC refers to the lowest concentration found to suppress growth.

For series [1], the system named is Mycobacterium tuberculosis. Kind of series: Antimycobacterial activity against multidrug (ethambutol, INH and RIF)-resistant Mycobacterium tuberculosis clinical isolate 2 assessed as inhibition of bacterial growth incubated for 7 days by rapid direct susceptibility test technique. It counts as functional. To be noted: 168 h.
The test system of series [2] is Mycobacterium tuberculosis. In words: Antimycobacterial activity against multidrug (INH and RIF)-resistant Mycobacterium tuberculosis clinical isolate 1 assessed as inhibition of bacterial growth incubated for 7 days by rapid direct susceptibility test technique. The conditions noted are these: 168 h. It counts as functional.
The nature of series [3]: Selectivity index, ratio of CC50 for CHO cells to MIC for multidrug (INH and RIF)-resistant Mycobacterium tuberculosis clinical isolate 1. It counts as toxicity. The conditions noted are these: hamster, read-out: Selectivity Index.
Series [4] relates to Mycobacterium tuberculosis. In words: Potency index, ratio of rifampicin MIC to compound MIC for multidrug (ethambutol, INH and RIF)-resistant Mycobacterium tuberculosis clinical isolate 2 incubated for 7 days by rapid direct susceptibility test technique. It counts as functional.
The test system of series [5] is Mycobacterium tuberculosis. In words: Potency index, ratio of rifampicin MIC to compound MIC for multidrug (INH and RIF)-resistant Mycobacterium tuberculosis clinical isolate 1 incubated for 7 days by rapid direct susceptibility test technique. It counts as functional.
Series [6] has as its system Mycobacterium tuberculosis. In words: Potency index, ratio of isoniazid MIC to compound MIC for multidrug (INH and RIF)-resistant Mycobacterium tuberculosis clinical isolate 1 incubated for 7 days by rapid direct susceptibility test technique. It counts as functional.
The subject of series [7] is Mycobacterium tuberculosis. Kind of series: Potency index, ratio of ciprofloxacin MIC to compound MIC for multidrug (ethambutol, INH and RIF)-resistant Mycobacterium tuberculosis clinical isolate 2 incubated for 7 days by rapid direct susceptibility test technique. It counts as functional.
Series [8] concerns Mycobacterium tuberculosis. Kind of series: Potency index, ratio of ciprofloxacin MIC to compound MIC for multidrug (INH and RIF)-resistant Mycobacterium tuberculosis clinical isolate 1 incubated for 7 days by rapid direct susceptibility test technique. It counts as functional.
The test system of series [9] is Mycobacterium tuberculosis. In words: Potency index, ratio of isoniazid MIC to compound MIC for multidrug (ethambutol, INH and RIF)-resistant Mycobacterium tuberculosis clinical isolate 2 incubated for 7 days by rapid direct susceptibility test technique. It counts as functional.

In brackets after ≈: the same amount, converted by molar mass. A value given as a limit tells only on which side of the number the result lay.

For `CCOC(=O)c1c(-c2ccc(F)cc2)oc2ccc(OCCN3C(=O)C(=O)c4cc(F)ccc43)cc12`, the minimum inhibitory concentration (MIC) in series [1] and in [2] was 2 µg/mL (≈ 4.07 µM) throughout. In addition, the selectivity ratio in series [3] came out at 32.

For the compound `CCOC(=O)c1c(-c2ccc(OC)cc2)oc2ccc(OCCCN3C(=O)C(=O)c4cc(F)ccc43)cc12`, the MIC in series [1] and in series [2] was 2 µg/mL (≈ 3.86 µM) in each case. In series [3], the selectivity ratio amounted to 32.

For the compound `NNC(=O)c1ccncc1` [ISONIAZID], the minimum inhibitory concentration (MIC) in series [1] and in series [2] was more than 128 µg/mL throughout. Also, in [3], the selectivity ratio is less than 2.

With `CCOC(=O)c1c(-c2ccc(F)cc2)oc2ccc(OCCN3C(=O)C(=O)c4cc(OC)ccc43)cc12`, the minimal inhibitory concentration (MIC) in series [1] was 4 µg/mL (≈ 7.94 µM); in series [2], 8 µg/mL (≈ 15.9 µM). Moreover, in series [3], the selectivity ratio stood at 64.

As for `CCO/N=C1\C(=O)N(CCCCCCOc2ccc3oc(-c4ccc(F)cc4)c(C(=O)OCC)c3c2)c2ccc(OC)cc21`, the minimum inhibitory concentration (MIC) was 1 µg/mL (≈ 1.66 µM) in [1] and 2 µg/mL (≈ 3.32 µM) in series [2]. The selectivity ratio in series [3] is 128.

As to `CCOC(=O)c1c(-c2ccc(F)cc2)oc2ccc(OCCCCCCN3C(=O)C(=O)c4cc(OC)ccc43)cc12`, the MIC in [1] and in series [2] was 2 µg/mL (≈ 3.57 µM) each time. Also, the selectivity ratio in series [3] was determined as 128.

Consider `CCOC(=O)c1c(-c2ccccc2)oc2ccc(OCCCN3C(=O)C(=O)c4cc(OC)ccc43)cc12`, for which the minimal inhibitory concentration (MIC) in [1] came out at 16 µg/mL (≈ 32 µM); in series [2], 8 µg/mL (≈ 16 µM). Moreover, the selectivity ratio in series [3] came to 64.

For `CCOC(=O)c1c(-c2ccc(OC)cc2)oc2ccc(OCCCCCN3C(=O)C(=O)c4ccccc43)cc12`, the figures for the MIC in series [1] and in series [2] were 1 µg/mL (≈ 1.9 µM) and 2 µg/mL (≈ 3.79 µM), respectively. The selectivity ratio in series [3] was 64.

`CCOC(=O)c1c(-c2ccc(F)cc2)oc2ccc(OCCN3C(=O)C(=O)c4ccccc43)cc12`: the minimal inhibitory concentration (MIC) in series [1] and in [2] was 4 µg/mL (≈ 8.45 µM) throughout. Besides, in series [3], the selectivity ratio turned out to be 32.

With `CCOC(=O)c1c(-c2ccc(OC)cc2)oc2ccc(OCCCCN3C(=O)C(=O)c4ccccc43)cc12`, the MIC came to 4 µg/mL (≈ 7.79 µM) in series [1] and 2 µg/mL (≈ 3.89 µM) in series [2]. The selectivity ratio in [3] came to 128.

For the compound `CCOC(=O)c1c(-c2ccccc2)oc2ccc(OCCCN3C(=O)/C(=N/O)c4cc(OC)ccc43)cc12`, the minimum inhibitory concentration (MIC) in [1] and in series [2] was 16 µg/mL (≈ 31.1 µM) in each case. Besides, in [3], the selectivity ratio stood at 32.

Consider `CCOC(=O)c1c(-c2ccc(F)cc2)oc2ccc(OCCCCCCN3C(=O)/C(=N\O)c4cc(OC)ccc43)cc12`, for which the values for the MIC in [1] and in [2] were 1 µg/mL (≈ 1.74 µM) and 4 µg/mL (≈ 6.96 µM), respectively. Moreover, the selectivity ratio in series [3] worked out at 128.

As for `CCOC(=O)c1c(-c2ccccc2)oc2ccc(OCCCCCCN3C(=O)C(=O)c4ccccc43)cc12`, the MIC in [1] was found to be 2 µg/mL (≈ 3.91 µM); in series [2], 1 µg/mL (≈ 1.95 µM). Besides, the selectivity ratio in series [3] came to 128.

As to `CCOC(=O)c1c(-c2ccc(F)cc2)oc2ccc(OCCCN3C(=O)C(=O)c4ccccc43)cc12`, the MIC in series [1] turned out to be 2 µg/mL (≈ 4.1 µM); in series [2], 1 µg/mL (≈ 2.05 µM). Moreover, the selectivity ratio in [3] turned out to be 256.

`CCOC(=O)c1c(-c2ccccc2)oc2ccc(OCCCN3C(=O)/C(=N/O)c4ccccc43)cc12`: the values for the minimal inhibitory concentration (MIC) in series [1] and in [2] were 16 µg/mL (≈ 33 µM) and 8 µg/mL (≈ 16.5 µM), respectively. Further, in series [3], the selectivity ratio came to 64.

As for `CCOC(=O)c1c(-c2ccc(F)cc2)oc2ccc(OCCCN3C(=O)/C(=N/O)c4ccccc43)cc12`, the MIC in series [1] came out at 4 µg/mL (≈ 7.96 µM); in [2], 8 µg/mL (≈ 15.9 µM). Besides, the selectivity ratio in series [3] stood at 32.

`CO[C@H]1/C=C/O[C@@]2(C)Oc3c(C)c(O)c4c(O)c(c(/C=N/N5CCN(C)CC5)c(O)c4c3C2=O)NC(=O)/C(C)=C\C=C\[C@H](C)[C@H](O)[C@@H](C)[C@@H](O)[C@@H](C)[C@H](OC(C)=O)[C@@H]1C` [RIFAMPIN]: the minimal inhibitory concentration (MIC) in [1] was more than 128 µg/mL; in [2] it was 64 µg/mL (≈ 77.8 µM). Also, in [3], the selectivity ratio was found to be 8.

`CNC(=O)c1c(-c2ccc(O)cc2)oc2ccc(O)c(CN3CCCCC3)c12`: the MIC in [1] and in [2] was less than 0.06 µg/mL in each case. Further, in [3], the selectivity ratio is more than 16400.

As to `CCOC(=O)c1c(-c2ccc(OC)cc2)oc2ccc(OCCCCCCN3C(=O)/C(=N/NC(N)=S)c4cc(F)ccc43)cc12`, the Ratio entry is given as “>=512” in series [4]; “>=512” in [5]; “>=512” in series [6]; 8 - 16 in series [7]; 8 - 16 in series [8]; “>=512” in series [9]. Moreover, the MIC in [1] was 0.25 µg/mL (≈ 0.395 µM); in series [2] it was 0.125 µg/mL (≈ 0.198 µM). Moreover, the selectivity ratio in [3] amounted to 1024.

Turning to `CCOC(=O)c1c(-c2ccccc2)oc2ccc(OCCCN3C(=O)C(=O)c4ccccc43)cc12`, the MIC in [1] came to 8 µg/mL (≈ 17 µM); in series [2], 4 µg/mL (≈ 8.52 µM). Besides, in series [3], the selectivity ratio stood at 63.

Turning to `CCOC(=O)c1c(-c2ccccc2)oc2ccc(OCCN3C(=O)C(=O)c4cc(F)ccc43)cc12`, the MIC was found to be 2 µg/mL (≈ 4.22 µM) in series [1] and 4 µg/mL (≈ 8.45 µM) in series [2]. In series [3], the selectivity ratio was 16.

In the case of `CCOC(=O)c1c(-c2ccc(F)cc2)oc2ccc(OCCCCCCN3C(=O)/C(=N/OC)c4ccccc43)cc12`, the figures for the MIC in series [1] and in [2] were 0.25 µg/mL (≈ 0.448 µM) and 0.5 µg/mL (≈ 0.895 µM), respectively. Also, the selectivity ratio in [3] was 258.

The values are drawn from ChEMBL document CHEMBL4311962, “Benzofuran-isatin hybrids and their in vitro anti-mycobacterial activities against multi-drug resistant Mycobacterium tuberculosis” (Eur J Med Chem, 2019).
